Results as given in patent US20020173475A1 (priority 2001, published 2002).

Legend:
PV 5′ UTR RNA = type: binding, poliovirus
[1] = test system: IRES initiated translation; details: cited from earlier work

Sequence	binding to PV 5′ UTR RNA relative to wild-type La antigen (PV 5′ UTR RNA)	inhibition of IRES initiated translation [1]
AALEAKICHQIEQQFGDF [Peptide 772]	dramatically reduced binding	–
AALEAKICHQIEYYFGDF [LAP]	–	inhibit this translation
AALEAKICHQIEYYQGDQ [Peptide 771]	dramatically reduced binding	–
